Where “and” joins values, the source holds several entries; their conditions need not be identical. Equal values may be shown once.
Each compound was assayed against Sodium-dependent serotonin transporter (Homo sapiens, UniProt P31645).
Sodium-dependent serotonin transporter, sequence (P31645 whole entry): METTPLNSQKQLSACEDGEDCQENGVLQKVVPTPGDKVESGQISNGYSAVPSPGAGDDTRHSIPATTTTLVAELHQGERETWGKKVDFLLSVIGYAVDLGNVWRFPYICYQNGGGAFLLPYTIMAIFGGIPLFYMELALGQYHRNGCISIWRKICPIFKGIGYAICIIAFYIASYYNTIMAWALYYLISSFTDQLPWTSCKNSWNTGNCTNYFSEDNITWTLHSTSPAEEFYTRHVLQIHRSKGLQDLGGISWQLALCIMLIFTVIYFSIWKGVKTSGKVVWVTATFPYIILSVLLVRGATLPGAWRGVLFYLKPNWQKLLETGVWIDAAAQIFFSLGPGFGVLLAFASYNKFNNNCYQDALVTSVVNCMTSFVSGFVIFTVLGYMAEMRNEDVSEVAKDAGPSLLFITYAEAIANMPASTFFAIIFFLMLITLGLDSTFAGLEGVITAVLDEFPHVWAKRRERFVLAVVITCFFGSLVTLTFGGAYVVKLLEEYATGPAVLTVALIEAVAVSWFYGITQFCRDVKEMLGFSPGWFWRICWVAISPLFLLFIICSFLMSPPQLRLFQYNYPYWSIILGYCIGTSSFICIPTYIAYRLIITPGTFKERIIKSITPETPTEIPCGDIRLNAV
`CC(N)C(=O)c1ccccc1` (configuration not stated) [CAS_62258] showed a Ki of 2370 nM.
Work on `CN[C@@H](C)Cc1ccccc1` [METHAMPHETAMINE (+)] yielded a Ki of 736 nM.
With `CNC(C)C(=O)c1ccccc1` (configuration not stated) [NSC_1576] the Ki was 1770 nM.

What follows are compounds tested against Sodium-dependent noradrenaline transporter (Homo sapiens, UniProt P23975).
Sodium-dependent noradrenaline transporter, sequence (P23975 whole entry): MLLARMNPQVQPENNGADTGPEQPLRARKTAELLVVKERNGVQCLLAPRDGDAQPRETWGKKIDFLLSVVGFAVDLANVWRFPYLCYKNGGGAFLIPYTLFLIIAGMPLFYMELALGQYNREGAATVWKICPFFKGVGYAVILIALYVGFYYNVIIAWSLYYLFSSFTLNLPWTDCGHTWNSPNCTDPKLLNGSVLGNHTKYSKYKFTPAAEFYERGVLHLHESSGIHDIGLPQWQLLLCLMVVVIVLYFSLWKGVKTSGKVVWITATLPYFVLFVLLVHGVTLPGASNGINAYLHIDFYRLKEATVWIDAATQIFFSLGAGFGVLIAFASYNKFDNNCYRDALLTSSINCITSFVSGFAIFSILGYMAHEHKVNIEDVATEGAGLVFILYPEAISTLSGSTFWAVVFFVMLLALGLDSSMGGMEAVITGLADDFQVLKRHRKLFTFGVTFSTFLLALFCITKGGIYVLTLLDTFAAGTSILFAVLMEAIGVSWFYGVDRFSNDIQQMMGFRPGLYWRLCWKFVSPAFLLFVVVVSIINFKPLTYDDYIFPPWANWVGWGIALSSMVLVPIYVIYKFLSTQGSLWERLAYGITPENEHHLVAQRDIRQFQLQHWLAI
`CC(N)C(=O)c1ccccc1` (configuration not stated) [CAS_62258] showed a Ki of 12.4 nM.
In the case of `CN[C@@H](C)Cc1ccccc1` [METHAMPHETAMINE (+)], the Ki is reported as 12.3 nM.
Compound `CNC(C)C(=O)c1ccccc1` (configuration not stated) [NSC_1576] has a Ki of 13.1 nM.
With `CC(N)C(O)c1ccccc1` [(1R, 2S)-2-Amino-1-phenyl-propan-1-ol] the Ki was 137 nM and 42.1 nM and 15 nM and 30.1 nM.

What follows are compounds tested against 5-hydroxytryptamine receptor 7 (Homo sapiens, UniProt P34969).
5-hydroxytryptamine receptor 7, sequence (P34969 whole entry): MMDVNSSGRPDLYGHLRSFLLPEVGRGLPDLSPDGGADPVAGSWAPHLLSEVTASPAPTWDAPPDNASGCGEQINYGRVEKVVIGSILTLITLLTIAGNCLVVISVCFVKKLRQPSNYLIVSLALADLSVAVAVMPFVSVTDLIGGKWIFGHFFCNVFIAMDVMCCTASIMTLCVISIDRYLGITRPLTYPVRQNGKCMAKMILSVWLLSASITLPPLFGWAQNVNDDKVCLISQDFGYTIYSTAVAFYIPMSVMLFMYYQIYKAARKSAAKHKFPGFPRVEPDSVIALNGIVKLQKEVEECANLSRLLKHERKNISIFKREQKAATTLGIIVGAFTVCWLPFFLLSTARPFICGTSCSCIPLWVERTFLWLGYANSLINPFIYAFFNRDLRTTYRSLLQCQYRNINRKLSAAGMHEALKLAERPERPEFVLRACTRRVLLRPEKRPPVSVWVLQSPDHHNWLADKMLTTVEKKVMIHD
With `CC(N)C(=O)c1ccccc1` (configuration not stated) [CAS_62258] the Ki was 2700 nM.
`CNC(C)C(=O)c1ccccc1` (configuration not stated) [NSC_1576] was tested, and the Ki was 1000 nM.
`CC(N)C(O)c1ccccc1` [(1R, 2S)-2-Amino-1-phenyl-propan-1-ol] was tested, and the Ki was 7000 nM.

What follows are compounds tested against T1, Alpha-2C adrenergic receptor (Homo sapiens, UniProt P18825).
T1 sequence (P18825 whole entry): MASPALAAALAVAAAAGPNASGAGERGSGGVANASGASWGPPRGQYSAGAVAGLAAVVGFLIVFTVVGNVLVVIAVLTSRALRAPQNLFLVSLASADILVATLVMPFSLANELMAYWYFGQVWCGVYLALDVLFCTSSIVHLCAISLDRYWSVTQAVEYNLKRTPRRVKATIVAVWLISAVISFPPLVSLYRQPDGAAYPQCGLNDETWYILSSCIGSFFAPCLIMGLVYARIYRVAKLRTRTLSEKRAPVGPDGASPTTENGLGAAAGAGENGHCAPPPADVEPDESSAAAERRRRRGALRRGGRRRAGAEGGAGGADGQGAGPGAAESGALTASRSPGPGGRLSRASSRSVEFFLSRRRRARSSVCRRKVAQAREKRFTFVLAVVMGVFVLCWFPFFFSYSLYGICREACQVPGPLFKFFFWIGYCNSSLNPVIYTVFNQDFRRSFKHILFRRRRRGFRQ
Work on `CC(N)C(=O)c1ccccc1` (configuration not stated) [CAS_62258] yielded a Ki of 765 nM.
`CNC(C)C(=O)c1ccccc1` (configuration not stated) [NSC_1576] was tested, and the Ki was 605 nM.
For `CNC(C)C(O)c1ccccc1` (configuration not stated) [CAS_24221-86-1], the Ki was 708 nM and 1220 nM.

What follows are compounds tested against T2, Alpha-2A adrenergic receptor (Homo sapiens, UniProt P08913).
T2 sequence (P08913 whole entry): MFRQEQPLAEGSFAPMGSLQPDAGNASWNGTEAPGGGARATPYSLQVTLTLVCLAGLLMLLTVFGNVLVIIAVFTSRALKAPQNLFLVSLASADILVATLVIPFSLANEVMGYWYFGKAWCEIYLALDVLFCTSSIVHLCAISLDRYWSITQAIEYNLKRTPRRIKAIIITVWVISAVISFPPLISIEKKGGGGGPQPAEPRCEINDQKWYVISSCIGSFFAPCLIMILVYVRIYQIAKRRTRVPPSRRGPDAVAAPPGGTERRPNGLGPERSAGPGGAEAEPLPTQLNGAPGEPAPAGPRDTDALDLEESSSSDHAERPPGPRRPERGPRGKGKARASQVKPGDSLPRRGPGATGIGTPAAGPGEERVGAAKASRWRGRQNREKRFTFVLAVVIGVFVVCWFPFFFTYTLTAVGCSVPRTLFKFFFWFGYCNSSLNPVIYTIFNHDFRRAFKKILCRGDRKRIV
With `CC(N)C(=O)c1ccccc1` (configuration not stated) [CAS_62258] the Ki was 6810 nM.
`CNC(C)C(=O)c1ccccc1` (configuration not stated) [NSC_1576] was tested, and the Ki was 9020 nM.
For `CC(N)C(O)c1ccccc1` [(1R, 2S)-2-Amino-1-phenyl-propan-1-ol], the Ki was 3020 nM and 1330 nM and 2610 nM and 2600 nM.
`CNC(C)C(O)c1ccccc1` (configuration not stated) [CAS_24221-86-1] gave a Ki of 2010 nM.
